Results: US20140171358A1, “ANTIMICROBIAL COMPOSITIONS COMPRISING DGLA AND NEOMYCIN SULFATE AND METHODS OF USE THEREOF” (Dignity Sciences Limited, priority 2012, published 2014)
Each block holds one compound with its values, some of them ahead of it.

What was measured:
Format in all cases: cell-based
P. acnes = assay: agar dilution method: growth index and MIC on P. acnes (single compounds and combinations); details: for MIC: Cutibacterium acnes, compound alone, read-out: MIC (mg/mL) as per P-11-0007 or P-11-0008 Addendum A
Description: Several compounds including fatty acids such as DGLA, 15-OHEPA, and 15-HETrE were tested to determine their capacity to inhibit the growth of P. acnes. In an exemplary method, an agar dilution method was used to determine the minimum inhibitory concentration (MIC) of each tested compound. Briefly, the agar dilution method involved preparing a series of concentrations of each compound (e.g., nicotinamide, benzoyl peroxide, adapalene, metronidazole, DGLA, 15-OHEPA, and 15-HETrE) in a Reinforced Clostridial Agar (RCA) media that facilitates growth of P. acnes under anaerobic conditions. An inoculum of P. acnes was prepared by incubation of P. acnes for approximately seven days at 35-37° C. to achieve a ≧1.0 OD600 inoculum of P. acnes in RCM broth. A portion of this inoculum was then added to the surface of each plate as a 10 μL spot and incubated at 35-37° C. for 72 hours or more. Growth of P. acnes was then observed and compared to control plates in which no compound has been added, and positive inhibition plates prepared with erythromycin. […] The growth of P. acnes in the presence of nicotinamide, benzoyl peroxide, adapalene, metronidazole, DGLA, 15-OHEPA, and 15-HETrE was determined with varying concentrations of the compound (see, Table 2). Next, the MIC was determined as the concentration at which a marked reduction (+) occurs in the appearance of growth on the test plate (as per Clinical and Laboratory Standards Institute M11-A7). The compounds tested singly in Example 1 were tested in combination with one another to determine the capacity of the combination to inhibit the growth of P. acnes. In an exemplary method, the MIC was determined for each of the combination as described in Example 1. Briefly, test combinations included DGLA with nicotinamide, benzoyl peroxide, adapalene, or metronidazole; 15-HETrE with nicotinamide, benzoyl peroxide, adapalene, or metronidazole; and 15-OHEPA with nicotinamide, benzoyl peroxide, adapalene, or metronidazole. The tables below show the growth of P. acnes in the presence of 0.4 or 1.0 mg/mL DGLA with varying concentrations of nicotinamide, benzoyl peroxide, adapalene, or metronidazole (Table 3); the growth of P. acnes in the presence of 0.01 or 0.05 mg/mL 15-HETrE with varying concentrations of nicotinamide, benzoyl peroxide, adapalene, or metronidazole (Table 5); and the growth of P. acnes in the presence of 0.5 or 0.1 mg/mL 15-OHEPA with varying concentrations of nicotinamide, benzoyl peroxide, adapalene, or metronidazole (Table 7).

A. brasiliensis = assay: paper disc corrected zone of inhibition (CZOI) on Mueller Hinton agar; details: for Lowest Concentration With Observed Inhibition / Most Effective Concentration Observed: A. brasiliensis
Description: (§1) The compounds tested in Example 1 were tested to determine their capacity to inhibit the growth of a variety of Gram-negative bacteria, Gram-positive bactgeria, fungi and yeast. In an exemplary method, Mueller Hinton agar plates were streaked with 500 μL of a 10^5 colony-forming units/mL culture and allowed to dry for at least one minute. A sterile paper disc (6 mm diameter) was then placed in the middle of each plate using sterile forceps. Twenty microliters of a solution of a known concentration of a test compound in filter-sterilized 95% ethanol were pipetted onto each test plate. Two streaked plates served as positive inhibitory controls and contained 6 mm sterile paper discs with standard tetracycline solutions. Two additional plates served as negative inhibition controls and each contained 6 mm sterile paper discs with 20 μL of filter-sterilized 95% ethanol. Two more plates served as positive growth controls and contained no paper disc or added antibacterial agent. The plates were incubated at 32.5±2° C. for 24±4 hours, after which the corrected zone of inhibition (“CZOI”) was determined as follows: For each plate, the length Y2 and width X2 of the test sample (paper disc) and length Y1 and width X1 of the clear zone were measured (FIG. 1). The CZOI was calculated from these values as shown by the equation below: [formula]

C. albicans = assay: as above; details: for Lowest Concentration With Observed Inhibition / Most Effective Concentration Observed: C. albicans
Description: as §1

C. striatum = assay: as above; details: for Lowest Concentration With Observed Inhibition / Most Effective Concentration Observed: C. striatum
Description: as §1

E. coli = assay: as above; details: for Lowest Concentration With Observed Inhibition / Most Effective Concentration Observed: E. coli
Description: as §1

E. faecalis = assay: as above; details: for Lowest Concentration With Observed Inhibition / Most Effective Concentration Observed: E. faecalis
Description: as §1

K. pneumoniae = assay: as above; details: for Lowest Concentration With Observed Inhibition / Most Effective Concentration Observed: K. pneumoniae
Description: as §1

P. aeroginosa = assay: as above; details: for Lowest Concentration With Observed Inhibition / Most Effective Concentration Observed: P. aeroginosa
Description: as §1

S. aureus = assay: as above; details: for Lowest Concentration With Observed Inhibition / Most Effective Concentration Observed: S. aureus
Description: as §1

S. epidermidis = assay: as above; details: for Lowest Concentration With Observed Inhibition / Most Effective Concentration Observed: S. epidermidis
Description: as §1

MIC (P. acnes): 0.05 to 0.075 mg/mL
Compound: CCC=CCC(O)C=CC=CCC=CCC=CCCCC(=O)O (stereo not shown) [15-OHEPA, 15-Hydroxy-eicosa-5,8,11,13,17-pentaenoic acid]
effect on growth of P. acnes on its own (P. acnes; 0.05 mg/mL): no effect on its own
Average CZOI (A. brasiliensis; 0.01 mg/mL): 0.25 mm
Average CZOI (A. brasiliensis; 0.025 mg/mL): 1.75 mm
Average CZOI (A. brasiliensis; 0.05 mg/mL): 2 mm
Average CZOI (A. brasiliensis; 0.075 mg/mL): 3.75 mm
Average CZOI (A. brasiliensis; 0.1 mg/mL): 2.75 mm
Lowest Concentration With Observed Inhibition (A. brasiliensis): 0.001 mg/mL
Most Effective Concentration Observed (A. brasiliensis): 0.075 mg/mL
Average CZOI (C. albicans; 0.01 mg/mL): 1 mm
Average CZOI (C. albicans; 0.025 mg/mL): 1.5 mm
Average CZOI (C. albicans; 0.05 mg/mL): 2.5 mm
Average CZOI (C. albicans; 0.075 mg/mL): 2.25 mm
Average CZOI (C. albicans; 0.1 mg/mL): 1 mm
Lowest Concentration With Observed Inhibition (C. albicans): 0.001 mg/mL
Most Effective Concentration Observed (C. albicans): 0.05 mg/mL
Average CZOI (C. striatum; 0.01 mg/mL): 3.25 mm
Average CZOI (C. striatum; 0.025 mg/mL): 3 mm
Average CZOI (C. striatum; 0.05 mg/mL): 3.5 mm
Average CZOI (C. striatum; 0.075 mg/mL): 2 mm
Average CZOI (C. striatum; 0.1 mg/mL): 1.5 mm
Lowest Concentration With Observed Inhibition (C. striatum): 0.001 mg/mL
Most Effective Concentration Observed (C. striatum): 0.05 mg/mL
Average CZOI (E. coli; 0.01 mg/mL): 2 mm
Average CZOI (E. coli; 0.025 mg/mL): 1.25 mm
Average CZOI (E. coli; 0.05 mg/mL): 1.25 mm
Average CZOI (E. coli; 0.075 mg/mL): 1.75 mm
Average CZOI (E. coli; 0.1 mg/mL): 1.5 mm
Lowest Concentration With Observed Inhibition (E. coli): 0.001 mg/mL
Most Effective Concentration Observed (E. coli): 0.001 mg/mL
Average CZOI (E. faecalis; 0.01 mg/mL): 2.5 mm
Average CZOI (E. faecalis; 0.025 mg/mL): 1.5 mm
Average CZOI (E. faecalis; 0.05 mg/mL): 2.25 mm
Average CZOI (E. faecalis; 0.075 mg/mL): 1.25 mm
Average CZOI (E. faecalis; 0.1 mg/mL): 1.5 mm
Lowest Concentration With Observed Inhibition (E. faecalis): 0.001 mg/mL
Most Effective Concentration Observed (E. faecalis): 0.001 mg/mL
Average CZOI (K. pneumoniae; 0.01 mg/mL): 2.25 mm
Average CZOI (K. pneumoniae; 0.025 mg/mL): 1.5 mm
Average CZOI (K. pneumoniae; 0.05 mg/mL): 1 mm
Average CZOI (K. pneumoniae; 0.075 mg/mL): 1.75 mm
Average CZOI (K. pneumoniae; 0.1 mg/mL): 2.25 mm
Lowest Concentration With Observed Inhibition (K. pneumoniae): 0.001 mg/mL
Most Effective Concentration Observed (K. pneumoniae): 0.001 mg/mL
Average CZOI (P. aeroginosa; 0.01 mg/mL): 1.25 mm
Average CZOI (P. aeroginosa; 0.025 mg/mL): 1 mm
Average CZOI (P. aeroginosa; 0.05 mg/mL): 1.5 mm
Average CZOI (P. aeroginosa; 0.075 mg/mL): 1.75 mm
Average CZOI (P. aeroginosa; 0.1 mg/mL): 1.5 mm
Lowest Concentration With Observed Inhibition (P. aeroginosa): 0.001 mg/mL
Most Effective Concentration Observed (P. aeroginosa): 0.075 mg/mL
Average CZOI (S. aureus; 0.01 mg/mL): 0 mm
Average CZOI (S. aureus; 0.025 mg/mL): 1 mm
Average CZOI (S. aureus; 0.05 mg/mL): 1.25 mm
Average CZOI (S. aureus; 0.075 mg/mL): 2.25 mm
Average CZOI (S. aureus; 0.1 mg/mL): 2 mm
Lowest Concentration With Observed Inhibition (S. aureus): 0.025 mg/mL
Most Effective Concentration Observed (S. aureus): 0.075 mg/mL
Average CZOI (S. epidermidis; 0.01 mg/mL): 1 mm
Average CZOI (S. epidermidis; 0.025 mg/mL): 2 mm
Average CZOI (S. epidermidis; 0.05 mg/mL): 2.25 mm
Average CZOI (S. epidermidis; 0.075 mg/mL): 3 mm
Average CZOI (S. epidermidis; 0.1 mg/mL): 1.25 mm
Lowest Concentration With Observed Inhibition (S. epidermidis): 0.001 mg/mL
Most Effective Concentration Observed (S. epidermidis): 0.075 mg/mL

MIC (P. acnes): 0.4 to 0.6 mg/mL
Compound: CCCCC/C=C\C/C=C\C/C=C\CCCCCCC(=O)O [DGLA, cis-8,11,14-eicosatrienoic acid]
effect on growth of P. acnes on its own (P. acnes; 0.4 mg/ml): no effect on its own
Average CZOI (A. brasiliensis; 0.6 mg/mL): 1.5 mm
Average CZOI (A. brasiliensis; 0.8 mg/mL): 4 mm
Average CZOI (A. brasiliensis; 1.0 mg/mL): 2.75 mm
Average CZOI (A. brasiliensis; 1.2 mg/mL): 1.75 mm
Average CZOI (A. brasiliensis; 1.4 mg/mL): 2.25 mm
Lowest Concentration With Observed Inhibition (A. brasiliensis): 0.6 mg/mL
Most Effective Concentration Observed (A. brasiliensis): 0.8 mg/mL
Average CZOI (C. albicans; 0.6 mg/mL): 1 mm
Average CZOI (C. albicans; 0.8 mg/mL): 0.75 mm
Average CZOI (C. albicans; 1.0 mg/mL): 1.75 mm
Average CZOI (C. albicans; 1.2 mg/mL): 2 mm
Average CZOI (C. albicans; 1.4 mg/mL): 3 mm
Lowest Concentration With Observed Inhibition (C. albicans): 0.6 mg/mL
Most Effective Concentration Observed (C. albicans): 1.4 mg/mL
Average CZOI (C. striatum; 0.6 mg/mL): 3.75 mm
Average CZOI (C. striatum; 0.8 mg/mL): 2.75 mm
Average CZOI (C. striatum; 1.0 mg/mL): 2 mm
Average CZOI (C. striatum; 1.2 mg/mL): 4.75 mm
Average CZOI (C. striatum; 1.4 mg/mL): 2.75 mm
Lowest Concentration With Observed Inhibition (C. striatum): 0.6 mg/mL
Most Effective Concentration Observed (C. striatum): 1.2 mg/mL
Average CZOI (E. coli; 0.6 mg/mL): 1 mm
Average CZOI (E. coli; 0.8 mg/mL): 1 mm
Average CZOI (E. coli; 1.0 mg/mL): 1.5 mm
Average CZOI (E. coli; 1.2 mg/mL): 0.5 mm
Average CZOI (E. coli; 1.4 mg/mL): 0.25 mm
Lowest Concentration With Observed Inhibition (E. coli): 0.6 mg/mL
Most Effective Concentration Observed (E. coli): 1.0 mg/mL
Average CZOI (E. faecalis; 0.6 mg/mL): 3.25 mm
Average CZOI (E. faecalis; 0.8 mg/mL): 3 mm
Average CZOI (E. faecalis; 1.0 mg/mL): 5 mm
Average CZOI (E. faecalis; 1.2 mg/mL): 2 mm
Average CZOI (E. faecalis; 1.4 mg/mL): 1.75 mm
Lowest Concentration With Observed Inhibition (E. faecalis): 0.6 mg/mL
Most Effective Concentration Observed (E. faecalis): 1.0 mg/mL
Average CZOI (K. pneumoniae; 0.6 mg/mL): 1.75 mm
Average CZOI (K. pneumoniae; 0.8 mg/mL): 2 mm
Average CZOI (K. pneumoniae; 1.0 mg/mL): 2.75 mm
Average CZOI (K. pneumoniae; 1.2 mg/mL): 2 mm
Average CZOI (K. pneumoniae; 1.4 mg/mL): 1.25 mm
Lowest Concentration With Observed Inhibition (K. pneumoniae): 0.6 mg/mL
Most Effective Concentration Observed (K. pneumoniae): 1.0 mg/mL
Average CZOI (P. aeroginosa; 0.6 mg/mL): 1 mm
Average CZOI (P. aeroginosa; 0.8 mg/mL): 1 mm
Average CZOI (P. aeroginosa; 1.0 mg/mL): 1 mm
Average CZOI (P. aeroginosa; 1.2 mg/mL): 1 mm
Average CZOI (P. aeroginosa; 1.4 mg/mL): 1 mm
Lowest Concentration With Observed Inhibition (P. aeroginosa): 0.6 mg/mL
Most Effective Concentration Observed (P. aeroginosa): 0.6 mg/mL
Average CZOI (S. aureus; 0.6 mg/mL): 1.25 mm
Average CZOI (S. aureus; 0.8 mg/mL): 3 mm
Average CZOI (S. aureus; 1.0 mg/mL): 3 mm
Average CZOI (S. aureus; 1.2 mg/mL): 3 mm
Average CZOI (S. aureus; 1.4 mg/mL): 2 mm
Lowest Concentration With Observed Inhibition (S. aureus): 0.6 mg/mL
Most Effective Concentration Observed (S. aureus): 0.8 mg/mL
Average CZOI (S. epidermidis; 0.6 mg/mL): 4.75 mm
Average CZOI (S. epidermidis; 0.8 mg/mL): 3.25 mm
Average CZOI (S. epidermidis; 1.0 mg/mL): 6.5 mm
Average CZOI (S. epidermidis; 1.2 mg/mL): 3 mm
Average CZOI (S. epidermidis; 1.4 mg/mL): 1 mm
Lowest Concentration With Observed Inhibition (S. epidermidis): 0.6 mg/mL
Most Effective Concentration Observed (S. epidermidis): 1.0 mg/mL
